{"source": "patent US10548915B2", "about": "“Combination therapy for EV71 infection” (SUN JET BIOTECHNOLOGY INC., priority 2015, dated 2020)", "system": "EV71 replication in RD cells", "experiment": "anti-VP1 western blot of EV71-infected RD cells (VP1/vimentin ratio normalized to non-treated infected cells)", "type": "cell-based, enterovirus type 71 (EV71 strain 4643/TW/1998)", "procedure": "Antibodies—Used antibodies included rabbit anti-VP1 (GTX70007, 1:2000, GeneTex), mouse anti-vimentin (sc-6260, 1:1000, Santa Cruz).\nCell lines, viruses and viral infection—RD (Human rhabdomyosarcoma, ATCC® CCL-136™) cells were grown in Dulbecco's modified Eagle's medium (Sigma, USA) containing 10% fetal bovine serum (Invitrogen, USA), at 5% CO2 and 37° C. EV71 strain 4643/TW/1998 (GeneBank accession number 1N544418.1) was kindly provided by Dr. Lih-Hwa Hwang at National Yang-Ming University, Taiwan. Viruses were added to RD cells which were cultured in DMEM containing 2% FBS. The newly generated viruses were titrated by cytopathology assay. For viral infection, cells were seeded at 80% confluency in 6-well dishes and grown overnight. Before challenge with viruses of 5 multiplicity of infection (MOI), old medium was replaced with serum-free medium. After 1 h adsorption of viruses, infected cells were cultured in DMEM with 10% FBS.\nWestern blotting—Protein extracted from RD cells were resolved with electrophoresis. Protein were blotted onto a nitrocellulose membrane eletrophoretically and incubated with indicated antibodies. The immunoreactive bands were visualized with LAS-4000 (FUJIFLIM).", "key": {"[1]": {"settings": "single compound at 0.005 μM (so in the source), RD cells, EV71 MOI 5"}, "[2]": {"settings": "single compound at 5 μM, RD cells, EV71 MOI 5"}}, "data": [{"molecule": "CC[C@H]1CN2CCc3cc(OC)c(OC)cc3[C@@H]2C[C@@H]1C[C@H]1NCCc2cc(OC)c(OC)cc21", "note": "[emetine]", "values": [{"measurement": "anti-EV71 effect (VP1 expression), in words", "setting": "single compound at 0.05 μM", "value": "VP1 expression returning"}, {"measurement": "anti-EV71 effect (VP1 expression), in words", "setting": "single compound at 0.5-5 μM", "value": "strong blockage of EV71 expression"}]}, {"molecule": "C[C@@H]1O[C@@H](O[C@H]2C[C@@H](O)[C@]3(CO)[C@H]4[C@H](O)C[C@]5(C)[C@@H](C6=CC(=O)OC6)CC[C@]5(O)[C@@H]4CC[C@]3(O)C2)[C@H](O)[C@H](O)[C@H]1O", "note": "[ouabain]", "values": [{"measurement": "anti-EV71 effect (VP1 expression), in words", "setting": "single compound at 0.005 μM", "value": "VP1 expression returning"}, {"measurement": "anti-EV71 effect (VP1 expression), in words", "setting": "single compound at 0.05-5 μM", "value": "strong blockage of EV71 expression"}]}, {"molecule": "O=C(Nc1ccc([N+](=O)[O-])cc1Cl)c1cc(Cl)ccc1O", "note": "[niclosamide]", "values": [{"measurement": "VP1 expression relative to non-treated infected cells", "setting": "[1]", "value": 0.9}, {"measurement": "anti-EV71 effect (VP1 expression), in words", "setting": "single compound at 0.05 μM", "value": "minimal effects"}, {"measurement": "anti-EV71 effect (VP1 expression), in words", "setting": "single compound at 5 μM", "value": "strong anti-EV71"}, {"measurement": "VP1 expression relative to non-treated infected cells", "setting": "[2]", "value": 0.2}]}, {"molecule": "CC(=O)OC[C@H]1O[C@@H]([S-])[C@H](OC(C)=O)[C@@H](OC(C)=O)[C@@H]1OC(C)=O.CCP(CC)CC.[Au+]", "note": "[auranofin]", "values": [{"measurement": "VP1 expression relative to non-treated infected cells", "setting": "[1]", "value": 0.9}, {"measurement": "anti-EV71 effect (VP1 expression), in words", "setting": "single compound at 0.05 μM", "value": "minimal effects"}, {"measurement": "anti-EV71 effect (VP1 expression), in words", "setting": "single compound at 5 μM", "value": "strong anti-EV71"}, {"measurement": "VP1 expression relative to non-treated infected cells", "setting": "[2]", "value": 0.05}]}, {"molecule": "CNCC[C@H](Oc1ccc(C(F)(F)F)cc1)c1ccccc1", "note": "[fluoxetine, S-(+)-fluoxetine]", "values": [{"measurement": "VP1 expression relative to non-treated infected cells", "setting": "single compound, all tested concentrations (5, 0.5, 0.05 μM)", "value": "0.9-1.0"}]}]}
